The values below come from publication PMC12040169 (PLOS Biology, 2025).

Molecules are shown by their SMILES.

The first data set can be described thus: in vitro. Conditions: human, hela cells.
Usually viability stands for a read-out of living cells in per cent, often relative to untreated cells. Regarding `CS(=O)(=O)c1ccc(-c2ccc3c(c2)CCN(C2CCN(C(=O)Oc4ccccc4)CC2)C3)cc1` [CBK169518], the viability at 28.5 h, 10 µM worked out at 90.1%.

Staying with this data set, now noted: human, hela cells, % viability.
As to `Cc1nc2c(C(=O)NCCNC(=O)c3cccnc3)ncn2c(C)c1Cc1ccc(F)c(Cl)c1` [CBK169332], the viability at 28.5 h, 10 µM came to 89.8%.

For the compound `CN(C)CCOc1ccc2c(c1)OC1(CCN(C(=O)c3ccc4sc(N)nc4c3)CC1)CC2=O` [CBK169380], the viability at 28.5 h, 10 µM was 91.4%.

Take `COc1ccc(-c2ccc3c(c2)OC2(CCN(C(=O)c4cc(OC)c(C)c(OC)c4)CC2)CC3=O)cn1` [CBK169424]: the viability at 28.5 h, 10 µM was 107%.

As to `O=C1CC2(CCN(C(=O)c3ccc4cc[nH]c4c3)CC2)Oc2ccc(CN3CCOCC3)cc21` [CBK169469], the viability at 28.5 h, 10 µM amounted to 121%.

As for `Cc1cc(N2CCCN3CCCCCC32)nc(N)n1` (centres unmarked) [CBK169746], the viability at 28.5 h, 10 µM is 102%.

Turning to `CC(C)(C)OC(=O)NCc1ccc(-c2nnc(CC(=O)O)o2)cc1` [CBK169899D], the viability at 28.5 h, 10 µM worked out at 96.5%.

For the compound `CNC1CCN(S(=O)(=O)c2sc3ccc(C(C)C)cc3c2C)C1` (centres unmarked) [CBK170067], the viability at 28.5 h, 10 µM turned out to be 110%.

Consider `COC(=O)c1ccc(-c2cnc(OCC3CCN(C(=O)OC(C)(C)C)CC3)nc2)nc1` [CBK170130], for which the viability at 28.5 h, 10 µM was 101%.

For the compound `Cc1cc(NC2CC3CCCC(C2)N3C)nc(N)n1` (centres unmarked) [CBK170333], the viability at 28.5 h, 10 µM turned out to be 88.4%.

Regarding `Cc1c(S(=O)(=O)N2CCN(C3CCN(C)CC3)CC2)sc2ccc(C(C)C)cc12` [CBK170352], the viability at 28.5 h, 10 µM was 105%.

Take `Cc1cc(CNS(=O)(=O)c2sc3ccc(C(C)C)cc3c2C)no1` [CBK170353]: the viability at 28.5 h, 10 µM worked out at 109%.

As to `Cc1c(S(=O)(=O)NCCN(C)C)sc2ccc(C(C)C)cc12` [CBK170357], the viability at 28.5 h, 10 µM turned out to be 90.2%.

Turning to `Cc1cc(NC(=O)C(C)OC(=O)C(NC(=O)OC(C)(C)C)c2ccccc2)no1` (centres unmarked) [CBK170398], the viability at 28.5 h, 10 µM was determined as 100%.

In the case of `COc1cc(C(=O)N2CCC3(CC2)CC(=O)c2cc(-c4ccc(N(C)C)cc4)ccc2O3)cc(OC)c1C` [CBK170663], the viability at 28.5 h, 10 µM came to 108%.

Turning to `COc1cc(C(=O)N2CCC3(CC2)CC(=O)c2cc(NC(C)=O)ccc2O3)nc2c(OC)cccc12` [CBK170664], the viability at 28.5 h, 10 µM stood at 122%.

For `O=C(OCc1ccccc1)N1CCC(C(=O)N(CCc2ccccc2)Cc2ccccc2)CC1` [CBK171978], the viability at 28.5 h, 10 µM stood at 92.5%.

As to `CCC(CC)C(=O)N1CCC(CNc2cnc(-c3ccc(S(C)(=O)=O)cc3)cn2)CC1` [CBK172021], the viability at 28.5 h, 10 µM amounted to 99.5%.

As to `CN(C)[C@H]1CCN(C(=O)c2ccc(Nc3cncc(Cl)n3)cn2)C1` [CBK172073], the viability at 28.5 h, 10 µM worked out at 88.8%.

On to `Fc1ccc2c(c1)[C@@H](Oc1cncc(NC3CCCNC3)n1)CCO2` (some centres unmarked) [CBK172256G], for which the viability at 28.5 h, 10 µM came to 92.6%.

As to `Cc1cccc2c1OCC[C@@H]2Oc1cncc(N2CCNCC2)n1` [CBK172310G], the viability at 28.5 h, 10 µM came to 101%.

As to `C[C@H](Oc1cncc(N2CCNCC2)n1)c1ccccc1Cl` [CBK172341G], the viability at 28.5 h, 10 µM amounted to 108%.

Regarding `O=S1(=O)Cc2ccccc2C(Oc2cncc(N3CCNCC3)n2)C1` (centres unmarked) [CBK172344T], the viability at 28.5 h, 10 µM was determined as 91.2%.

For the compound `c1ccc2c(c1)CSCC2Oc1cncc(N2CCNCC2)n1` (centres unmarked) [CBK172356T], the viability at 28.5 h, 10 µM was 94.9%.

With `c1ccc2c(c1)OCC(COc1cncc(N3CCNCC3)n1)O2` (centres unmarked) [CBK172357G], the viability at 28.5 h, 10 µM came out at 101%.

With `Cc1ccc(S(=O)(=O)Nc2ccc3c(ccn3CCOC3CCN(C(=O)OC(C)(C)C)CC3)c2)cc1Cl` [CBK172991], the viability at 28.5 h, 10 µM was found to be 99%.

Turning to `O=C(c1ccc(-c2ccc(OCC3CCN(c4ncccn4)CC3)cn2)cc1)N1CCOCC1` [CBK173183], the viability at 28.5 h, 10 µM came to 91.8%.

Turning to `COc1ccccc1-c1nc2ccccn2c1CO` [CBK173210], the viability at 28.5 h, 10 µM was found to be 113%.

Turning to `CCN(CC)C(=O)CCNC(=O)c1ccc2c(c1)COC(C1CCN(C(=O)OC(C)(C)C)CC1)O2` (centres unmarked) [CBK173273], the viability at 28.5 h, 10 µM came out at 92.2%.

For `CC(C)(C)OC(=O)N1CCC(C2OCc3cc(-c4ccc(S(C)(=O)=O)cn4)ccc3O2)CC1` (centres unmarked) [CBK173326], the viability at 28.5 h, 10 µM came out at 87.6%.

With `CN(Cc1ccc(-c2ccc(CO)cc2)nc1)C1CCN(C(=O)OC(C)(C)C)CC1` [CBK173453], the viability at 28.5 h, 10 µM is 81.3%.

As to `Cn1cc(-c2ccc(OCC3CCN(C(=O)OC(C)(C)C)CC3)cn2)cn1` [CBK173498], the viability at 28.5 h, 10 µM was 77.8%.

With `C[S+]([O-])c1ccc(-c2cnc(NCC3CCN(C(=O)OC(C)(C)C)CC3)cn2)cc1` (centres unmarked) [CBK173723], the viability at 28.5 h, 10 µM is 83.4%.

`CCCNCCc1ccc(NC(=O)Nc2cc(F)cc3c2OCOC3)cc1` [CBK173887T]: the viability at 28.5 h, 10 µM amounted to 97.8%.

Regarding `Cc1cc(COc2nc3ccccc3nc2NC[C@@H]2CCCO2)no1` [CBK174027], the viability at 28.5 h, 10 µM turned out to be 119%.

Consider `O=C(Nc1ccc(Cl)cc1)NC1(C(=O)NCc2ccncc2)CCCCC1` [CBK174259], for which the viability at 28.5 h, 10 µM was 100%.

With `CC(C)(C)OC(=O)N1CCC(NC(=O)c2ccc(-c3ccc(S(C)(=O)=O)cc3)cn2)CC1` [CBK174352], the viability at 28.5 h, 10 µM is 84.8%.

Consider `CCN1CCN(c2ccc(-c3ccc(OCC4CCN(C(=O)OC(C)(C)C)CC4)cn3)cn2)CC1` [CBK174505], for which the viability at 28.5 h, 10 µM came out at 109%.

In the case of `COCc1cc(-c2ccc(C(=O)N3CCN(C)CC3)nc2)ccc1OCC1CCN(C(=O)OC(C)(C)C)CC1` [CBK174511], the viability at 28.5 h, 10 µM came out at 84%.

Consider `O=C(NC1CCOCC1)c1n[nH]c2c1CCC2` [CBK174626], for which the viability at 28.5 h, 10 µM amounted to 113%.

Regarding `CCN1CCC[C@@H]1CNC(=O)c1n[nH]c2c1CCC2` [CBK174628], the viability at 28.5 h, 10 µM was found to be 106%.

Turning to `COc1cccc(NC(=O)c2ccnc(Cl)c2)c1` [CBK174661], the viability at 28.5 h, 10 µM is 104%.

On to `COc1cccc(NC(=O)c2ccncc2Cl)c1` [CBK174695], for which the viability at 28.5 h, 10 µM was 96.3%.

`Cc1cc(OCC2CCN(C(=O)OC(C)(C)C)CC2)ccc1Br` [CBK175091]: the viability at 28.5 h, 10 µM was found to be 108%.

Turning to `CCOC(=O)c1cn[nH]c1N` [CBK175217], the viability at 28.5 h, 10 µM came to 89.4%.

Regarding `CCNC(=O)Nc1ccccc1C(=O)NC1CCCCC1` [CBK175266], the viability at 28.5 h, 10 µM worked out at 89.6%.

Consider `Cc1csc(NC(=O)C2CC(=O)N(C3CCCC3)C2)n1` (centres unmarked) [CBK175501], for which the viability at 28.5 h, 10 µM was 107%.

In the case of `Cc1cnc(NC(=O)C2CC(=O)N(Cc3cccs3)C2)s1` (centres unmarked) [CBK175531], the viability at 28.5 h, 10 µM came to 90.9%.

As for `CC(C)(C)c1csc(NC(=O)C2CC(=O)N(C3CCCC3)C2)n1` (centres unmarked) [CBK175544], the viability at 28.5 h, 10 µM came out at 105%.

Regarding `O=C(Nc1ncc(Cl)s1)C1CC(=O)N(C2CC2)C1` (centres unmarked) [CBK175551], the viability at 28.5 h, 10 µM was 102%.

With `COCc1ccc(Nc2ccccc2S(=O)(=O)c2ccccc2)cc1OCC1CCN(C(=O)OC(C)(C)C)CC1` [CBK175577], the viability at 28.5 h, 10 µM was 94.6%.

For the compound `Cn1c(COc2cncc(Cl)n2)cc2ccccc21` [CBK176002], the viability at 28.5 h, 10 µM came out at 89.9%.

On to `Clc1cncc(OCCc2c[nH]c3ccccc23)n1` [CBK176027], for which the viability at 28.5 h, 10 µM turned out to be 65.2%.

`Clc1ccc(OCCOc2ccccc2)nn1` [CBK176034]: the viability at 28.5 h, 10 µM came out at 86.7%.

In the case of `O=C(CSc1ccc2ccccc2n1)Nc1ccnc2ccccc12` [CBK176848], the viability at 28.5 h, 10 µM came to 78.1%.

Turning to `COc1ncccc1-c1cccnc1-n1ccnc1` [CBK176872], the viability at 28.5 h, 10 µM amounted to 92.6%.

`CSc1cccc(-c2cnccc2-n2ccnc2)c1` [CBK177155]: the viability at 28.5 h, 10 µM is 92.5%.

On to `COc1cccc(COc2cncc(N3CCNCC3)n2)c1OC` [CBK200003], for which the viability at 28.5 h, 10 µM came to 98.6%.

Turning to `CN(C)c1cccc(COc2cncc(N3CCNCC3)n2)c1` [CBK200004], the viability at 28.5 h, 10 µM was found to be 82.1%.

Turning to `COc1cccc(OCCOc2nsnc2N2CCNCC2)c1` [CBK200007], the viability at 28.5 h, 10 µM came to 110%.

In the case of `Cc1ccc(S(=O)(=O)N(C)c2ccnc(N3CCNCC3)n2)cc1` [CBK200009], the viability at 28.5 h, 10 µM worked out at 107%.

`CCN1CCN(c2ccc(NS(=O)(=O)c3ccccc3)c3ccccc23)CC1` [CBK200011C]: the viability at 28.5 h, 10 µM amounted to 88.3%.

`COc1ccccc1NS(=O)(=O)c1ccc(N2C[C@@H](C)N[C@@H](C)C2)c2ccccc12` [CBK200012C]: the viability at 28.5 h, 10 µM is 85.3%.

Take `CN1CCN(c2nc(NS(=O)(=O)c3cccc(C(F)(F)F)c3)cc3ccccc23)CC1` [CBK200013C]: the viability at 28.5 h, 10 µM was 98.6%.

In the case of `O=S(=O)(Nc1ccc(N2CCNCC2)c2ccccc12)c1ccc(Br)cc1F` [CBK200014C], the viability at 28.5 h, 10 µM worked out at 95.4%.

On to `O=S(=O)(c1ccc(C(F)(F)F)cc1)c1ccc2nccc(N3CCNCC3)c2c1` [CBK200016C], for which the viability at 28.5 h, 10 µM was determined as 91.2%.

With `CN1CCN(c2ccc3ccn(S(=O)(=O)c4ccccc4Br)c3n2)CC1` [CBK200019C], the viability at 28.5 h, 10 µM was determined as 92.5%.

In the case of `O=S(=O)(Nc1cc(O[C@@H]2CCNC2)c2occc2c1)c1ccccc1Br` [CBK200020C], the viability at 28.5 h, 10 µM is 89.6%.

Consider `O=S(=O)(c1ccccc1)c1cn2ccnc2c(N2CCNCC2)n1` [CBK200021T], for which the viability at 28.5 h, 10 µM came out at 98.3%.

For the compound `O=C(O)c1ccc(NS(=O)(=O)c2cccc([N+](=O)[O-])c2)cc1O` [CBK200022], the viability at 28.5 h, 10 µM stood at 84.8%.

For `CC(C)(C)OC(=O)Nc1cc(Cl)ccc1C(=O)O` [CBK200024], the viability at 28.5 h, 10 µM was 103%.

Regarding `O=S(=O)(Nc1nc(-c2c(F)cccc2Cl)cs1)c1cc(Cl)c(Cl)s1` [CBK200025], the viability at 28.5 h, 10 µM amounted to 92.8%.

In the case of `Cc1cc(Br)ccc1S(=O)(=O)Nc1nc(-c2c(F)cccc2Cl)cs1` [CBK200026], the viability at 28.5 h, 10 µM was 95.6%.

As for `CCOC(=O)Cc1csc(NS(=O)(=O)c2ccc(Br)cc2C)n1` [CBK200027], the viability at 28.5 h, 10 µM is 96.2%.

Take `O=S(=O)(Nc1nc(-c2ccccc2Cl)cs1)c1sc(Cl)cc1Br` [CBK200028]: the viability at 28.5 h, 10 µM was 103%.

In the case of `O=S(=O)(Nc1nc(-c2sccc2Cl)cs1)c1cc(Br)c(Cl)s1` [CBK200030], the viability at 28.5 h, 10 µM came out at 107%.

For the compound `COc1ccc(F)cc1-c1ccc(S(=O)(=O)Nc2nc(CC(=O)N3CCOCC3)cs2)cc1` [CBK200031], the viability at 28.5 h, 10 µM came out at 88%.
